{
  "source": "paper PMC6379152",
  "about": "(Cellular microbiology, 2018)",
  "tested_on": "rHSGGT1 (HSGGT1)",
  "assay": "pNA release at […] nm, Michaelis-Menten fit",
  "assay_type": "biochemical, Helicobacter saguini",
  "conditions": "20 mM glycylglycine as acceptor; Tris-HCl pH 8; 37 C; mean of three batches",
  "data": [
    {"smiles": "N[C@@H](CCC(=O)Nc1ccc([N+](=O)[O-])cc1)C(=O)O", "note": "[GpNA, L-y-glutamyl-p nitroanilide]", "values": [
      {"measurement": "Km", "value": "12.3 ± 2.35", "unit": "µM"}
    ]}
  ]
}
